Key:
[1] = melanoma patients; cited from earlier work
From the text: Boron delivery agent is one of the critical factors limiting the expansion of BNCT application in cancer treatment. An ideal boron delivery agent should be low toxicity, high tumour uptake, quick blood clearance, T/N ratio > 3, and low accumulation in healthy tissues. Unfortunately, no existing boron delivery agents can fulfil all these requirements. Historically, BPA is the most popular boron delivery agent in clinical BNCT. Cancer cells usually promote cellular amino acid transport and result in increased uptake of BPA, especially in melanoma cells ([27]). A study evaluated the biodistributi ...

[2] = system: HS683 intracranial glioma; experiment: In vivo BNCT in intracranial glioma mouse model, 18F-FDG PET/CT; settings: for SUV (18F-FDG uptake) in tumour tissues after BNCT, compared to control group: PET/CT, p < 0.05
Procedure: The glioma mouse model was established as reported recently ([16]). HS683 cells were transfected with luciferase-expressing vector (Lenti-UTR-Luc-Blank Vector; Promega). BALB/c nude mice were anesthetized by intraperitoneal injection of tribromoethanol (150 mg/kg) and then placed in a stereotaxic instrument. A hole was made in the mouse skull and 5 μL of HS683 cell suspension (2 × 10^7 cells/mL) was injected into the brain using the stereotaxic instrument. The growth state of glioma tumours in mice was monitored by bioluminescent imaging (IVIS 3D Perkin Elmer). Animal experiments were performed according to the protocols approved by the Animal Use Review Board and Ethical Committee of Shenzhen Bay Laboratory (permit no. AFRQS202101).
During BNCT, five mice per group were injected with 2.5 mM/kg of BPA (5% fructose solution) or ANG-B solution through the tail vein. 90 min later, mice were anesthetized with an intraperitoneal injection of tribromoethanol at a dose of 150 mg/kg and then fixed in a mould for BNCT irradiation of the mouse head using a published method ([16]). Mice were treated with 2 kW of neutron flux for 2 h each time and four times for each mouse in 1 week, to achieve a total neutron flux of 12.5 ± 0.5 × 10^11 n/cm^2. Mice were anesthetized with 2% isoflurane at 25°C and imaged with PET/CT (nanoSCAN, Mediso) with 1.5 uCi/g ^18F-FDG at 1 day before or 31 days after BNCT. Image processing and analyses were performed by AMIDE (RRID: SCR_005940), where ROI, SUV values, and tumour volume were determined.
The glioma mouse model was further used in BCNT tests for ANG-B. The body weight of all the used mice was monitored during the whole process, where no obvious health issues with body weight loss were noticed (Supplementary Figure S6A). PET imaging is usually used to evaluate therapeutic response of glioma patients or mouse models ([16], [21], [22]). Therefore, we employed ^18F-FDG-based PET/CT to estimate intracranial tumour volume for each mouse 1 day before and 31 days after BNCT treatments (Figure 4A). An additional lower concentration of ANG-B at 1 mM/kg (i.e., ANG-B low) was included for comparison.

[3] = system: HS683 cells; experiment: Clonogenic cell survival assay after BNCT (thermal neutron irradiation) in vitro; format: cell-based, human; settings: 5 mM drug for 12 h, neutron flux 3.0 ± 0.4 × 10^11 n/cm^2 in 2 h, colonies after 2 weeks, mean ± SD, three biological repeats
Procedure: Thermal neutron radiation was given as described previously ([16]). A high-current proton beam (3.5 MeV) generated from a radio frequency quadrupole (RFQ) accelerator at the China Spallation Neutron Source was used to bombard a lithium target and produce thermal neutrons (0.5 eV-10 keV) for BNCT.
HS683 cells (10^6/sample) were prepared in centrifuge tubes (1.5 mL, Eppendorf) and treated with ANG-B, TAT-B, T7-B, or BPA at various concentrations (0.0–5.0 mM) for 12 h. Epithermal neutrons were given with a total neutron flux of 3.0 ± 0.4 × 10^11 n/cm^2 given in 2 h. The drug-containing medium was then washed off and desirable numbers of cells in single-cell suspension were seeded into 6-well plates to grow colonies in 2 weeks. Colonies were fixed in 70% ethanol at room temperature for 10 min, and stained with 0.1% crystal violet. Colonies with more than 50 cells were scored as clonogenic survivors.
BNCT eliminates cancer cells by heavy charged particle rays, where reproductive cell death plays a vital role in the treatment outcome ([17], [18]). Here we employed the clonogenic survival assay to analyze the reproductive cell death of glioma cells after BNCT treatment in vitro. To guarantee the performance of BNCT in vitro, we designed and manufactured a tube-holding device for thermal neutron irradiation of cells (Figure 2A). BNCT with these boron delivery agents were tested on HS683 cells. […] BNCT with 5 mM ANG-B caused 86.5% ± 5.3% of clonogenic cell death. […] Therefore, ANG-B was selected for the following in vivo study.

[4] = system: U87MG cells; experiment: Boron uptake in cells by ICP-AES; format: cell-based, human; settings: 0–0.8 mM for 12 h
Procedure: (§1) Cell lines established from human glioma (U87MG, U251, and HS683), melanoma (A375), non-small cell lung cancer (A549), and hepatocellular carcinoma (HepG2) were obtained from the National Infrastructure of Cell Line Resource in China, authenticated, and cultured in DMEM, supplemented with 10% fetal bovine serum (HyClone) and 100 IU/mL penicillin/streptomycin (all Sigma-Aldrich unless otherwise noted). Cells were routinely tested for mycoplasma using the Mycoplasma Test Kit (Cellorlab, China). All cells were maintained in a humidified incubator at 5% CO2 and 37°C after defrosting and cultured in the exponential growth phase before each experiment.
(§2) After treatment with boronated peptides or BPA (HEC Pharm, Dongguan, China), boron concentrations in human cells or mice tissues were measured by inductively coupled plasma atomic emission spectroscopy (abbr., ICP-AES; Leeman’s Prodigy 7) using published methods ([16]).
(§3) An efficient boron delivery agent should enhance boron uptake in cancer cells. Thus, we analyzed boron concentrations on 6 human cancer cell lines derived from glioma (U87MG, U251, and HS683), melanoma (A375), non-small cell lung cancer (A549), or hepatocellular carcinoma (HepG2) after treatment with various concentrations of ANG-B, TAT-B, or T7-B for 12 h. BPA was tested in parallel for comparison.
(§4) Figure 1 Boron concentrations in 6 human cell lines derived from glioma (U87MG, U251, and HS683), melanoma (A375), non-small cell lung cancer (A549), or hepatocellular carcinoma (HepG2). Cells were pre-exposed to 0–0.8 mM of ANG-B, TAT-B, T7-B, or BPA for 12 h. Boron concentrations were then analyzed by ICP-AES in HS683 (A), U251 (B), U87MG (C), A375 (D), HepG2 (E), or A549 cells (F). Mean values with standard errors are shown.

[5] = Boron biodistribution in intracranial glioma mouse model (ICP-AES); format: in vivo
Procedure: The glioma mouse model was established as reported recently ([16]). HS683 cells were transfected with luciferase-expressing vector (Lenti-UTR-Luc-Blank Vector; Promega). BALB/c nude mice were anesthetized by intraperitoneal injection of tribromoethanol (150 mg/kg) and then placed in a stereotaxic instrument. A hole was made in the mouse skull and 5 μL of HS683 cell suspension (2 × 10^7 cells/mL) was injected into the brain using the stereotaxic instrument. The growth state of glioma tumours in mice was monitored by bioluminescent imaging (IVIS 3D Perkin Elmer). Animal experiments were performed according to the protocols approved by the Animal Use Review Board and Ethical Committee of Shenzhen Bay Laboratory (permit no. AFRQS202101). After treatment with boronated peptides or BPA (HEC Pharm, Dongguan, China), boron concentrations in human cells or mice tissues were measured by inductively coupled plasma atomic emission spectroscopy (abbr., ICP-AES; Leeman’s Prodigy 7) using published methods ([16]). Proper microenvironmental components are critical for the treatment response of glioma ([19], [20]). Thus, we constructed an intracranial mouse glioma model based on HS683 cells and a research plan based on this model for testing ANG-B effects (Figure 3A). In order to monitor the intracranial tumour growth, we used luciferase-expressing cells for this mouse model (Supplementary Figure S5A). Boron biodistribution was examined at the time point for thermal neutron irradiation. 2.5 mM/kg of ANG-B or BPA (in 5% fructose solution) was injected into mice, and tissues or organs from the tumour, blood, brain, lung, liver, heart, spleen, and kidney were then collected at indicated time points for measuring boron concentrations (Supplementary Figure S5B). […] At 4 h after drug injection, the T/N ratio of ANG-B was 5.61 ± 1.0 and the T/B ratio was 9.42 ± 2.47.

[6] = system: HS683 intracranial glioma; experiment: TUNEL apoptosis assay in mouse tumours after BNCT; format: in vivo; settings: 1 day or 7 days after treatment
Procedure: DNA fragmentation in apoptosis induced by BNCT was assessed using the one-step TUNEL apoptosis assay kit following the manufacturer’s protocol (Abbkine Scientific Co., Ltd., China).
In order to evaluate the ^18F-FDG uptake in tumour tissues under different treatment conditions, SUV data were calculated based on a reference region ([23]). […] Based on the 3D PET image data, we also estimated tumour volume before and after BNCT treatment for each mouse (Figure 4B). […] By contrast, tumour size in the control group kept increasing.
Supplementary Figure 6. In vivo effects of ANG-B based BNCT. (A) Body weight of glioma mouse model after treatment. (B) SUVmax analyses (indicating of FDG uptake) of glioma tumors in PET/CT imaging before and after BNCT treatment. (C) Apoptotic cells in tumor at 1 day or 7days after ANG-B based BNCT treatment as measured by TUNEL assay. Mann–Whitney U test; *p < 0.05.

[7] = system: HepG2 cells; experiment: Boron uptake in cells by ICP-AES; format: cell-based, human; settings: 0–0.8 mM for 12 h, p < 0.05
Procedure: as §1, §2, §3, §4

[8] = system: HS683 cells; experiment: Boron uptake in cells by ICP-AES; format: cell-based, human; settings: 0–0.8 mM for 12 h, p < 0.05
Procedure: as §1, §2, §3, §4

[9] = system: A375 cells; experiment: Boron uptake in cells by ICP-AES; format: cell-based, human; settings: A375 cells (printed A357), 0–0.8 mM for 12 h, p < 0.05
Procedure: as §1, §2, §3, §4

[10] = glioma mouse model, 2.5 mM/kg in 5% fructose solution, time not stated
[11] = 4 h after tail-vein injection of 2.5 mM/kg, intracranial HS683 glioma mice, ICP-AES, three mice per group

Row | Compound | T/N ratio [1] | skin-to-blood ratio [1] | SUV (18F-FDG uptake) in tumour tissues after BNCT, compared to control group ([2]; 2.5 mM/kg) | clonogenic cell death after BNCT [3] | boron uptake compared with boronated peptides [4] | T/B ratio of boron [5, 10] | T/N ratio of boron [5, 10] | apoptotic cells in mouse tumours after BNCT [6] | SUV (18F-FDG uptake) in tumour tissues after BNCT, compared to control group ([2]; 1 mM/kg (ANG-B low)) | tumour volume at 31 days after BNCT treatment ([2]; 2.5 mM/kg, 18F-FDG PET imaging before and after BNCT) | boron uptake compared with BPA [7] | boron uptake compared with BPA [8] | boron uptake compared with BPA [9] | glioma-targeting effects and blood clearance compared with BPA ([5]; 2.5 mM/kg tail vein, 1, 2, 4 or 6 h, glioma mouse model) | Tumour/blood (T/B) ratio of boron [5, 11] | Tumour/normal (T/N) tissue ratio of boron [5, 11]
1 | N[C@@H](Cc1ccc([10B](O)O)cc1)C(=O)O [BPA, ^10B-p-boronophenylalanine, reference compound] | 3.40 | 1.31 | significantly decreased SUV | 73.3% ± 6.0% | took up more BPA | approximately 2 | approximately 2 | – | – | – | – | – | – | – | – | –
2 | MASMTGGQQMG [T7-B, boron-peptide conjugate used as control] | – | – | – | 54.5% ± 1.1% | – | – | – | – | – | – | – | – | – | – | – | –
3 | TFFYGGSRGKRNNFKTEEYC [ANG-B, N-terminal boron-containing derivative of angiopep-2 with 10B-4-carboxyphenylboronic acid at N terminus and cysteine at C terminus] | – | – | significantly decreased SUV | 86.5% ± 5.3% | – | – | – | more apoptotic cells | significantly decreased SUV | significantly decreased tumour volume | significantly more boron uptake than BPA | significantly more boron uptake than BPA | significantly more boron uptake than BPA | significantly better | 9.42 ± 2.47 | 5.61 ± 1.0

From PMC10267362, “Boron-peptide conjugates with angiopep-2 for boron neutron capture therapy” (Frontiers in Medicine, 2023)
